No end group written: not given here.

Data set [1] can be described thus: Effect on body weight (Example 7). The class given is in vivo. Particulars: rats, days 1, 3, 5 and 7; peptide 1, 10 or 100 mg/kg/day oral, hGH 500 μg/kg/day subcutaneous; FIG. 24. The protocol:
The synthetic peptide No. 1 or water for injection (control) was administered to male Crlj:WI rats at the age of four weeks by oral gavage using a gastric tube once a day for seven days (n=10 in each group). The dosage of the synthetic peptide was 1, 10 or 100 mg/kg/day. As a positive control, human growth hormone (hGH) (Norditropin, Japan Standard Commodity Classification Number: 872412) was subcutaneously administered at 500 μg/kg/day once a day for seven days. The body weight was measured on days 1, 3, 5 and 7 of administration.

The nature of data set [2]: Digestion test using artificial gastric juice (Example 11). The class given is in vitro ADME. Particulars: 10 mg in 1 mL, pepsin, pH 3.0, 37° C., 60 and 120 minutes, HPLC; FIG. 35. On the procedure:
A test using artificial gastric juice was performed on the synthetic peptide No. 1. Ten milligrams of the synthetic peptide No. 1 was dissolved in 1 mL of artificial gastric juice (0.2% NaCl, 0.32% pepsin, 2.4% diluted hydrochloric acid, adjusted to pH 3.0), and the mixture was allowed to react under shaking at 37° C. Samples were collected before the reaction and 60 and 120 minutes after the reaction, and subjected to HPLC [column: ODS column (size: diameter 46 mm×500 mm, SHIMADZU); mobile phase: (A) 0.05% TFA, (B) 90% acetonitrile/0.05% TFA; gradient: 2% B (0 min), 20% B (50 min), 100% B (50.1 min), 100% B (55 min); detection: UV 215 nm] to examine whether the synthetic peptide No. 1 was decomposed by the gastric juice (resistance to the gastric juice).

A short description of data set [3]: Digestion test using artificial intestinal juice (Example 11). Type of data set: in vitro ADME. Particulars: 10 mg in 1 mL, pancreatin, pH 6.8, 37° C., 120 minutes and overnight, HPLC; FIG. 36. On the procedure:
Ten milligrams of the synthetic peptide No. 1 was dissolved in 1 mL of artificial intestinal juice (0.34% KH2PO4, 0.36% Na2HPO4, 1% pancreatin, adjusted to pH 6.8), and the mixture was allowed to react under shaking at 37° C. Samples were collected before the reaction, 120 minutes after the reaction and after overnight reaction, and subjected to HPLC [column: ODS column (size: diameter 46 mm×500 mm, SHIMADZU); mobile phase: (A) 0.05% TFA, (B) 90% acetonitrile/0.05% TFA; gradient: 2% B (0 min), 20% B (50 min), 100% B (50.1 min), 100% B (55 min); detection: UV 215 nm] to examine whether the synthetic peptide No. 1 was decomposed by the intestinal juice (resistance to the intestinal juice).

With “VNPESEEE [synthetic peptide No. 1, Val-Asn-Pro-Glu-Ser-Glu-Glu-Glu]”, the “change in the body weight” value in data set [1] is “No significant change”. For the same sequence, the “decomposition by artificial gastric juice (resistance to the gastric juice)” value in data set [2] is “not decomposed”. In data set [3], the “decomposition by artificial intestinal juice (resistance to the intestinal juice)” value was “totally decomposed into a peptide having the sequence of the synthetic peptide No. 2”.

Source of the values: patent US11241475B2, “Preventive and/or therapeutic agent for osteogenesis imperfecta and other diseases” (Pharma Foods International Co., Ltd., priority 2016, dated 2022).
